Test results reported in patent US10597388B2, “Pyridazinone herbicides” (FMC CORPORATION, priority 2014, dated 2020).

Tests used:
Assay in all cases: Test D controlled growth environment herbicide test, pre- and postemergence
Format in all cases: in vivo
[1] = system: Russian thistle (Salsola kali)
Summary of the method: (§1)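 Species sown in silt loam and sprayed preemergence, or grown in peat-based medium to 2–18 cm (1- to 4-leaf stage) and sprayed postemergence, with compounds in non-phytotoxic solvent plus surfactant. Visual injury scored versus controls after 14–21 d in a controlled environment, 0 (no effect) to 100 (complete control).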

[2] = system: oilseed rape (Brassica napus)
Summary of the method: as §1

[3] = system: oat, wild (wild oat, Avena fatua)
Summary of the method: as §1

[4] = system: buckwheat, wild (wild buckwheat, Polygonum convolvulus)
Summary of the method: as §1

[5] = system: canarygrass (Phalaris minor)
Summary of the method: as §1

[6] = system: field poppy (Papaver rhoeas)
Summary of the method: as §1

[7] = system: mustard, wild (wild mustard, Sinapis arvensis)
Summary of the method: as §1

[8] = system: field violet (Viola arvensis)
Summary of the method: as §1

[9] = system: wheat, spring (spring wheat, Triticum aestivum)
Summary of the method: as §1

[10] = system: bromegrass, downy (downy bromegrass, Bromus tectorum)
Summary of the method: as §1

[11] = system: chamomile (scentless chamomile, Matricaria inodora)
Summary of the method: as §1

[12] = system: radish, wild (wild radish, Raphanus raphanistrum)
Summary of the method: as §1

[13] = system: bluegrass (annual bluegrass, Poa annua)
Summary of the method: as §1

[14] = Postemergence, 31 g ai/ha, scale 0 to 100 (0 no effect, 100 complete control)
[15] = Postemergence, 125 g ai/ha, visual rating on scale 0 (no effect) to 100 (complete control), 14 to 21 d
[16] = Postemergence, 250 g ai/ha, scale 0 to 100 (0 no effect, 100 complete control)
[17] = Preemergence, 62 g ai/ha, scale 0 to 100 (0 no effect, 100 complete control)
[18] = Preemergence, 125 g ai/ha, scale 0 to 100 (0 no effect, 100 complete control)
[19] = Preemergence, 250 g ai/ha, scale 0 to 100 (0 no effect, 100 complete control)
[20] = postemergence, 62 g ai/ha, scale 0 to 100, 0 no effect, 100 complete control

CCC(=O)Oc1c(C)nn(C)c(=O)c1-c1c(C)sc2c(C)cc(C)cc12 [Compound 28]
Russian Thistle plant response rating [1, 14]: 70
Plant response rating, Russian Thistle [1, 15]: 80
Plant response rating, Russian Thistle [1, 16]: 85
Plant response rating (scale of 0 to 100), Russian Thistle ([1]; Preemergence, 31 g ai/ha): 0
Plant response rating, Russian Thistle [1, 17]: 0
Plant response rating, Russian Thistle [1, 18]: 15
Plant response rating, Russian Thistle [1, 19]: 35
Plant response rating, Russian Thistle [1, 20]: 75
Oilseed Rape plant response rating [2, 14]: 65
Plant response rating, Oilseed Rape [2, 15]: 65
Plant response rating, Oilseed Rape [2, 16]: 85
Plant response rating (scale of 0 to 100), Oilseed Rape ([2]; Preemergence, 31 g ai/ha): 0
Plant response rating, Oilseed Rape [2, 17]: 0
Plant response rating, Oilseed Rape [2, 18]: 10
Plant response rating, Oilseed Rape [2, 19]: 25
Plant response rating, Oilseed Rape [2, 20]: 65
Oat, Wild plant response rating [3, 14]: 75
Plant response rating, Oat, Wild [3, 15]: 90
Plant response rating, Oat, Wild [3, 16]: 95
Plant response rating (scale of 0 to 100), Oat, Wild ([3]; Preemergence, 31 g ai/ha): 85
Plant response rating, Oat, Wild [3, 17]: 85
Plant response rating, Oat, Wild [3, 18]: 90
Plant response rating, Oat, Wild [3, 19]: 100
Plant response rating, Oat, Wild [3, 20]: 85
Buckwheat, Wild plant response rating [4, 14]: 100
Plant response rating, Buckwheat, Wild [4, 15]: 100
Plant response rating, Buckwheat, Wild [4, 16]: 100
Plant response rating (scale of 0 to 100), Buckwheat, Wild ([4]; Preemergence, 31 g ai/ha): 0
Plant response rating, Buckwheat, Wild [4, 17]: 0
Plant response rating, Buckwheat, Wild [4, 18]: 20
Plant response rating, Buckwheat, Wild [4, 19]: 100
Plant response rating, Buckwheat, Wild [4, 20]: 100
Canarygrass plant response rating [5, 14]: 75
Plant response rating, Canarygrass [5, 15]: 80
Plant response rating, Canarygrass [5, 16]: 85
Plant response rating (scale of 0 to 100), Canarygrass ([5]; Preemergence, 31 g ai/ha): 85
Plant response rating, Canarygrass [5, 17]: 85
Plant response rating, Canarygrass [5, 18]: 95
Plant response rating, Canarygrass [5, 19]: 95
Plant response rating, Canarygrass [5, 20]: 75
Field Poppy plant response rating [6, 14]: 80
Plant response rating, Field Poppy [6, 15]: 100
Plant response rating, Field Poppy [6, 16]: 100
Plant response rating (scale of 0 to 100), Field Poppy ([6]; Preemergence, 31 g ai/ha): 100
Plant response rating, Field Poppy [6, 17]: 95
Plant response rating, Field Poppy [6, 18]: 95
Plant response rating, Field Poppy [6, 19]: 100
Plant response rating, Field Poppy [6, 20]: 90
Mustard, Wild plant response rating [7, 14]: 35
Plant response rating, Mustard, Wild [7, 15]: 70
Plant response rating, Mustard, Wild [7, 16]: 70
Plant response rating (scale of 0 to 100), Mustard, Wild ([7]; Preemergence, 31 g ai/ha): 10
Plant response rating, Mustard, Wild [7, 17]: 15
Plant response rating, Mustard, Wild [7, 18]: 30
Plant response rating, Mustard, Wild [7, 19]: 55
Plant response rating, Mustard, Wild [7, 20]: 45
Field Violet plant response rating [8, 14]: 80
Plant response rating, Field Violet [8, 15]: 85
Plant response rating, Field Violet [8, 16]: 90
Plant response rating (scale of 0 to 100), Field Violet ([8]; Preemergence, 31 g ai/ha): 75
Plant response rating, Field Violet [8, 17]: 85
Plant response rating, Field Violet [8, 18]: 100
Plant response rating, Field Violet [8, 19]: 100
Plant response rating, Field Violet [8, 20]: 75
Wheat, Spring plant response rating [9, 14]: 0
Plant response rating, Wheat, Spring [9, 15]: 10
Plant response rating, Wheat, Spring [9, 16]: 20
Plant response rating (scale of 0 to 100), Wheat, Spring ([9]; Preemergence, 31 g ai/ha): 0
Plant response rating, Wheat, Spring [9, 17]: 0
Plant response rating, Wheat, Spring [9, 18]: 5
Plant response rating, Wheat, Spring [9, 19]: 25
Plant response rating, Wheat, Spring [9, 20]: 5
Bromegrass, Downy plant response rating [10, 14]: 15
Plant response rating, Bromegrass, Downy [10, 15]: 40
Plant response rating, Bromegrass, Downy [10, 16]: 70
Plant response rating (scale of 0 to 100), Bromegrass, Downy ([10]; Preemergence, 31 g ai/ha): 45
Plant response rating, Bromegrass, Downy [10, 17]: 55
Plant response rating, Bromegrass, Downy [10, 18]: 70
Plant response rating, Bromegrass, Downy [10, 19]: 85
Plant response rating, Bromegrass, Downy [10, 20]: 25
Chamomile plant response rating [11, 14]: 85
Plant response rating, Chamomile [11, 15]: 90
Plant response rating, Chamomile [11, 16]: 95
Plant response rating (scale of 0 to 100), Chamomile ([11]; Preemergence, 31 g ai/ha): 100
Plant response rating, Chamomile [11, 17]: 95
Plant response rating, Chamomile [11, 18]: 100
Plant response rating, Chamomile [11, 19]: 100
Plant response rating, Chamomile [11, 20]: 90
Radish, Wild plant response rating [12, 14]: 85
Plant response rating, Radish, Wild [12, 15]: 85
Plant response rating, Radish, Wild [12, 16]: 95
Plant response rating (scale of 0 to 100), Radish, Wild ([12]; Preemergence, 31 g ai/ha): 0
Plant response rating, Radish, Wild [12, 17]: 0
Plant response rating, Radish, Wild [12, 18]: 35
Plant response rating, Radish, Wild [12, 19]: 30
Plant response rating, Radish, Wild [12, 20]: 100
Bluegrass plant response rating [13, 14]: 20
Plant response rating, Bluegrass [13, 15]: 35
Plant response rating, Bluegrass [13, 16]: 50
Plant response rating (scale of 0 to 100), Bluegrass ([13]; Preemergence, 31 g ai/ha): 30
Plant response rating, Bluegrass [13, 17]: 45
Plant response rating, Bluegrass [13, 18]: 65
Bluegrass plant response rating [13, 19]: 75
Plant response rating, Bluegrass [13, 20]: 30
